Several values for one entry are separate records, joined by “and”; a condition that tells them apart may be missing. Equal entries are not always repeated. Inconclusive results and toxic doses are left out. Rule for the calls: active = survival T/C of 150% or more; inactive = T/C below 125% in these data.
Test system: P388 leukemia ip, CD2F1 mice, survival T/C
Assay: NCI In Vivo Anticancer Drug Screen. Data for tumor model P388 Leukemia (intraperitoneal) in CD2F1 (CDF1) mice
Conditions: endpoint: median survival time, higher = longer survival
Method in brief: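 Mice carrying the transplanted tumor received test compound or vehicle. Survival was recorded in each group, and the value is the treated-group measurement divided by that of the vehicle-treated control group.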

Measured: T/C

Cc1c2ccncc2c(C)c2c1[nH]c1ccccc12
active: dose: 20.0 mg/kg/injection, schedule: Q04DX003 (ip), vehicle: distilled water + Tween-80 157 % of control | dose: 20.0 mg/kg/injection, schedule: Q04DX003 (ip), vehicle: water 163 % of control | dose: 21.6 mg/kg/injection, schedule: Q04DX002 (ip), vehicle: Klucel (hydroxypropylcellulose) (HPC) 171 % of control | dose: 21.6 mg/kg/injection, schedule: Q04DX003 (ip), vehicle: water 150 % of control | dose: 25.0 mg/kg/injection, schedule: Q01DX009 (ip), vehicle: saline with Tween-80 204 % of control | dose: 25.0 mg/kg/injection, schedule: Q04DX002 (ip), vehicle: Klucel (hydroxypropylcellulose) (HPC) 153 % of control | dose: 25.0 mg/kg/injection, schedule: Q04DX003 (ip), vehicle: alkali diluted with water 183 % of control | dose: 25.0 mg/kg/injection, schedule: Q04DX003 (ip), vehicle: clinical formulation 178 % of control and 180 % of control | dose: 25.0 mg/kg/injection, schedule: Q04DX003 (ip), vehicle: water 163 % of control | dose: 30.0 mg/kg/injection, schedule: Q04DX003 (ip), vehicle: clinical formulation 198 % of control | dose: 32.0 mg/kg/injection, schedule: Q01DX005 (ip), vehicle: saline with Tween-80 207 % of control | dose: 32.0 mg/kg/injection, schedule: Q01DX005 (iv), vehicle: saline with Tween-80 162 % of control | dose: 32.0 mg/kg/injection, schedule: Q01DX005 (oral), vehicle: saline with Tween-80 186 % of control | dose: 36.0 mg/kg/injection, schedule: Q04DX002 (ip), vehicle: Klucel (hydroxypropylcellulose) (HPC) 191 % of control | dose: 36.0 mg/kg/injection, schedule: Q04DX002 (ip), vehicle: saline with Tween-80 158 % of control | dose: 36.0 mg/kg/injection, schedule: Q04DX003 (ip), vehicle: water 176 % of control | dose: 40.0 mg/kg/injection, schedule: Q01DX005 (ip), vehicle: saline with Tween-80 227 % of control | dose: 40.0 mg/kg/injection, schedule: Q04DX003 (ip), vehicle: distilled water + Tween-80 193 % of control | dose: 43.2 mg/kg/injection, schedule: Q04DX002 (ip), vehicle: saline with Tween-80 176 % of control | dose: 50.0 mg/kg/injection, schedule: Q04DX002 (ip), vehicle: Klucel (hydroxypropylcellulose) (HPC) 168 % of control | dose: 50.0 mg/kg/injection, schedule: Q04DX003 (ip), vehicle: alkali diluted with water 221 % of control | dose: 50.0 mg/kg/injection, schedule: Q04DX003 (ip), vehicle: clinical formulation 181 % of control | dose: 50.0 mg/kg/injection, schedule: Q04DX003 (ip), vehicle: water 167 % of control | dose: 60.0 mg/kg/injection, schedule: Q04DX002 (ip), vehicle: Klucel (hydroxypropylcellulose) (HPC) 198 % of control | dose: 60.0 mg/kg/injection, schedule: Q04DX002 (ip), vehicle: saline with Tween-80 161 % of control | dose: 60.0 mg/kg/injection, schedule: Q04DX003 (ip), vehicle: water 219 % of control | dose: 72.0 mg/kg/injection, schedule: Q04DX002 (ip), vehicle: saline with Tween-80 166 % of control and 199 % of control | dose: 80.0 mg/kg/injection, schedule: Q04DX003 (ip), vehicle: distilled water + Tween-80 190 % of control and 254 % of control | dose: 90.0 mg/kg/injection, schedule: Q04DX002 (ip), vehicle: saline with Tween-80 185 % of control and 190 % of control | dose: 100.0 mg/kg/injection, schedule: Q04DX002 (ip), vehicle: Klucel (hydroxypropylcellulose) (HPC) 220 % of control and 230 % of control | dose: 100.0 mg/kg/injection, schedule: Q04DX003 (ip), vehicle: alkali diluted with water 219 % of control | dose: 100.0 mg/kg/injection, schedule: Q04DX003 (ip), vehicle: water 203 % of control | dose: 120.0 mg/kg/injection, schedule: Q04DX002 (ip), vehicle: saline with Tween-80 157 % of control and 218 % of control | dose: 134.0 mg/kg/injection, schedule: Q04DX002 (ip), vehicle: saline with Tween-80 211 % of control and 214 % of control | dose: 167.0 mg/kg/injection, schedule: Q04DX002 (ip), vehicle: Klucel (hydroxypropylcellulose) (HPC) 207 % of control | dose: 167.0 mg/kg/injection, schedule: Q04DX002 (ip), vehicle: saline with Tween-80 158 % of control | dose: 300.0 mg/kg/injection, schedule: Q04DX002 (ip), vehicle: saline with Tween-80 165 % of control
202 % of control and 90 % of control: dose: 40.0 mg/kg/injection, schedule: Q01DX005 (ip), vehicle: Klucel (hydroxypropylcellulose) (HPC)
inactive: dose: 40.0 mg/kg/injection, schedule: Q04DX003 (ip), vehicle: water 117 % of control | dose: 50.0 mg/kg/injection, schedule: Q01DX009 (ip), vehicle: saline with Tween-80 86 % of control | dose: 200.0 mg/kg/injection, schedule: Q04DX002 (ip), vehicle: Klucel (hydroxypropylcellulose) (HPC) 88 % of control | dose: 200.0 mg/kg/injection, schedule: Q04DX003 (ip), vehicle: alkali diluted with water 100 % of control

Reference: PubChem BioAssay AID330 (DTP/NCI, 2004)
